Experimental data as given in patent US11440880B2, “Thalidomide analogs and methods of use” (The USA, as represented by the Secretary, Department of …, priority 2015, dated 2022).

Legend:
[1] = test system: fli1:EGFP zebrafish embryos (intersegmental vessel growth); assay: fli1:EGFP zebrafish embryo angiogenesis assay; assay type: in vivo; design: fli1:EGFP angiogenesis n (survived/tested): concentration or dose not given beside the values; conditions: for minimal effective concentration: Danio rerio, lowest concentration producing an effect, compounds not producing an effect shown at the highest evaluated concentration; for fli1:EGFP angiogenesis n (survived/tested): embryos alive after 24 hours of exposure
Source text: (§1) Zebrafish embryology: The use of zebrafish embryo (Danio rerio) bioassays as a preclinical model in the classification of novel compounds has increased in recent years due to several factors including; low cost, ease of maintenance, speed of embryonic development, transparency of the embryos and genetic conservation between zebrafish and humans (Howe et al., Nature 2013; 496:498; Therapontos et al., PNAS 2009, 106:8573; Mahony et al., PNAS 2013, 110:12703; Beedie et al., Oncotarget 2016, 7(22):33237; Beedie et al., Mol. Cancer Ther. 2015, 14(10):2228). Two established zebrafish reporter lines were used—the fli1:EGFP line, where the fli1 promoter drives expression of enhanced green fluorescent protein within the developing vasculature (Lawson et al., 2002), and the Tg(mpo::EGFP) line (also known as mpo:GFP), which expresses green fluorescent protein via the neutrophil specific myeloperoxidase promoter (Renshaw et al., Blood 2006, 108:3976). The use of these zebrafish transgenic reporter lines allows for the identification of potential anti-angiogenic and anti-inflammatory compounds respectively, and both have been used previously to successfully classify the action of thalidomide analogs (Therapontos et al., 2009; Mahony et al., 2013; Beedie et al., Oncotarget 2016, 7(22):33237; Beedie et al., Mol. Cancer Ther. 2015, 14(10):2228). Zebrafish embryos were treated with analogs as previously described (Mahony et al., 2013). Briefly, fli1:EGFP embryos were collected and embryos were allowed to develop for 24 hours. Embryos were dechorionated manually and exposed to test compounds or vehicle control for a further 24 hours, imaged and analyzed for intersegmental vessel (ISV) growth. At 24 hours post fertilisation (hpf) the ISVs were ideal to study to visualize and analyze the actions of compounds on angiogenesis. At this time point ISVs were rapidly forming beneath the developing head, over the body and had yet to form in the tail (Lawson and Weinstein, Developmental Biology 2002, 248:307; Therapontos and Vargesson, Developmental Dynamics 2010, 239:2761). Additionally, these sprouts would go on to form the bilateral dorsal longitudinal anastomotic vessels. By treating before this fusion and formation occurs, the effect of each compound on the individual vessels as well as overall patterning structural integrity (Isogai et al., Development 2003, 130:5281) could be determined. Tg(mpo::EGFP) were tail fin clipped as previously detailed (Renshaw et al., 2006; Mahony et al., 2013; Beedie et al., Oncotarget 2016, 7(22):33237; Beedie et al., Mol. Cancer Ther. 2015, 14(10):2228) and incubated with test compounds or vehicle control at 72 hours post fertilization. Fish were imaged at 24 hours and the number of migratory neutrophils present at the wound site were counted. Compounds inducing an at least 50% reduction of neutrophils to the wound site were considered to have anti-inflammatory properties in this system. All larvae were assessed for viability and morphological integrity.
To determine if the thalidomide analogs had any effect on angiogenesis, fli1:EGFP embryos (Lawson and Weinstein, Developmental Biology 2002, 248:307-318) were exposed to either vehicle or a compound of interest, over a range of concentrations and over a range of time points starting at 24 hpf. Images were obtained at three time points over 24 hours after exposure to the compounds. The best concentration and time point were selected. CPS49, a compound that is chemically and structurally similar to thalidomide breakdown products, and is tetrafluorinated (which adds stability and bioactivity to the compound) and that causes severe limb defects in chicken embryos, was used as a positive control. The embryos were imaged at 48 hpf (FIGS. 3A3L) and analyzed for both vessel formation and the extent of growth of the vasculature. […]

[2] = test system: nitrite levels in the culture media; assay: Nitrite level (Griess Reagent System) in LPS-challenged RAW 264.7 cells; assay type: cell-based, mouse; design: key: NS=not significant; a “+” sign=anti-inflammatory or increased cell numbers; a “−” sign=cell toxicity or pro-inflammatory; conditions: LPS 30 or 60 ng/mL, 24 h
Experimental: Nitrite levels in the culture media were measured by use of the Griess Reagent System (Promega, Madison, Wis.), following the manufacturer's protocol. The O.D. of unknown samples was read at 520 nm λ, compared to a sodium nitrite standard curve (1.5 μM to 100 μM) and nitrite measured media concentrations expressed as μM units. As the lowest nitrite concentration on the Griess Reagent System standard curve was 1.5 μM, this was chosen as the effective cutoff for defining measurable nitrite concentrations. TNF-α protein levels were measured by use of an ELISA specific for mouse TNF-α protein (BioLegend, San Diego, Calif.) and are expressed as a % change from their appropriate control or as pg/ml.
RAW 264.7 cells obtained from ATCC (Manassas, Va., USA) were grown in DMEM media supplemented with 10% FCS, penicillin 100 μg/ml and streptomycin 100 μg/ml, and maintained at 37° C. and 5% CO2. Cells were seeded in 24 well plates and, 24 hours later, were utilized in studies. One hour prior to the initiation of any study, the seeding media was replaced with fresh media (1 mL), and the cells were allowed to equilibrate at 37° C. and 5% CO2.
RAW 264.7 cells were challenged with LPS (Sigma, St Louis, Mo.: serotype 055:B5) from at a final concentration of 30 or 60 ng/mL. This concentration of LPS in RAW 264.7 cells induces a sub-maximal rise in both TNF-alpha and nitrite levels without a loss in cellular viability. This sub-maximal rise is useful for assessing whether the addition of an experimental drug can either lower or further raise levels of TNF-α and nitrite. Twenty four hours following the addition of LPS, conditioned media was harvested and analyzed for quantification of secreted TNF-α protein and nitrite levels. Fresh media was replaced into the wells and cell viability was then assessed.
Thalidomide and analogs were prepared in tissue culture grade DMSO (Sigma). RAW 264.7 cells were pretreated with thalidomide, analogues or vehicle one hour prior to a challenge with LPS. The effects of various concentrations of thalidomide analogues were assessed. All compounds were synthesized to a chemical purity of >99.5%, as assessed by chemical characterization by a combination of 1H NMR, 13C NMR and GC/MS analyses (Bruker AC-300 spectrometer, together with elemental analyses (Atlantic Microlab, Inc., Norcross, Ga.).

[3] = test system: mpo:GFP zebrafish embryos (neutrophil migration to the wound site); assay: mpo:GFP zebrafish fin-clip neutrophil migration (inflammation) assay; assay type: in vivo; design: mpo:GFP inflammation n (survived/tested): concentration or dose not given beside the values; conditions: for minimal effective concentration: Danio rerio, Neutrophil, lowest concentration producing an effect, compounds not producing an effect shown at the highest evaluated concentration; for mpo:GFP inflammation n (survived/tested): embryos survived/tested at the concentration given
Source text: as §1
To assess the immunomodulatory effects of the thalidomide analogs, the mpo:gfp transgenic zebrafish line (Renshaw et al., Blood 2006, 108:3976-3978) was utilized because it is an accepted model of inflammation, and can be used to test the effect of anti-inflammatory agents. These embryos express GFP-tagged myeloperoxidase, where green fluorescence marks the neutrophil cells involved in the inflammatory response process, for example following injury, from 72 hours post fertilization (Renshaw et al., 2006; Mahony et al., 2013; Beedie et al., Oncotarget 2016, 7(22):33237). At 72 hpf the dorsal third of the tail fin was removed and the embryos were immersed in the desired compound or vehicle (FIGS. 5A-5C). The embryos were examined for the effect on the inflammatory response quantified as an induction and migration of neutrophils to the wound site 24 hours later.

[4] = test system: RAW 264.7 cells; assay: Cell viability (CellTiter 96 AQueous One) of LPS-challenged RAW 264.7 cells; assay type: cell-based, mouse; design: key: NS=not significant; a “+” sign=anti-inflammatory or increased cell numbers; a “−” sign=cell toxicity or pro-inflammatory
Method in brief: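 RAW 264.7 murine macrophages pretreated 1 h with compound or DMSO vehicle, then challenged with LPS (serotype 055:B5) at 30 or 60 ng/mL final for 24 h. After media replacement, viability measured by tetrazolium (MTS) conversion, absorbance at 490 nm, reported as O.D.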

[5] = test system: TNF-α protein; assay: TNF-α protein level (ELISA) in LPS-challenged RAW 264.7 cells; assay type: cell-based, mouse; design: key: NS=not significant; a “+” sign=anti-inflammatory or increased cell numbers; a “−” sign=cell toxicity or pro-inflammatory; conditions: LPS 30 or 60 ng/mL, 24 h
Method in brief: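 RAW 264.7 cells pretreated 1 h with compound in DMSO vehicle, then challenged with LPS (30 or 60 ng/mL) for 24 h at 37° C. Conditioned-media nitrite by Griess (520 nm, sodium nitrite standard curve, 1.5 μM cutoff) in μM; mouse TNF-α by ELISA as pg/ml or % change from control.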

Row | SMILES | minimal effective concentration [1] [µg/mL] | fli1:EGFP angiogenesis n (survived/tested) [1] | Nitrite ([2]; 30 μM) | Nitrite ([2]; 60 μM) | Nitrite ([2]; 100 μM) | minimal effective concentration [3] [µg/mL] | mpo:GFP inflammation n (survived/tested) [3] | Viability ([4]; 30 μM) | Viability ([4]; 60 μM) | Viability ([4]; 100 μM) | TNF-α ([5]; 30 μM) | TNF-α ([5]; 60 μM) | TNF-α ([5]; 100 μM) | Viability ([4]; 1 μM) | Viability ([4]; 10 μM) | TNF-α ([5]; 1 μM) | TNF-α ([5]; 10 μM) | Nitrite ([2]; 1 μM) | Nitrite ([2]; 10 μM) | anti-inflammatory activity (inhibition of neutrophil migration) ([3]; in words)
1 | O=C1c2cccc([N+](=O)[O-])c2C(=O)N1C1CCC(=S)NC1=S (stereo not drawn) [Compound 9, 2-(2,6-Dithioxo-3-piperidinyl)-4-nitro-1H-isoindole-1,3(2H)-dione] | 10 | 14/21 | + | + | + | 10 | 12/12 | NS | NS | + | NS | NS | NS |  |  |  |  |  |  | 
2 | O=C1CCC(N2Cc3ccccc3C2=O)C(=O)N1CSC(=S)NC1CCCCC1 (stereo not drawn) [Compound 52] | 100 | 6/7 |  |  |  | 100 | 7/21 | NS |  |  | + |  |  | NS | NS | + | + |  |  | 
3 | O=C1CCC(N2Cc3ccccc3C2=O)C(=O)N1CSC(=S)N1CCCCC1 (stereo not drawn) [Compound 53] | 10 | 9/14 |  |  |  | 10 | 13/19 | + |  |  | NS |  |  | − | NS | + | + |  |  | 
4 | O=C1CCC(N2C(=O)c3cccnc3C2=O)C(=O)N1 (stereo not drawn) [Compound 57] | 8.5 | 8/12 | + |  |  | 17 | 8/15 | NS |  |  | NS |  |  | NS | NS | NS | NS | NS | + | 
5 | O=C1CCC(N2C(=O)c3ccncc3C2=O)C(=O)N1 (stereo not drawn) [Compound 58] | 10 | 33/33 | + |  |  | 5 | 7/16 | NS |  |  | NS |  |  | NS | NS | NS | NS | + | + | most effective analog at inhibiting the inflammatory response
6 | O=C1c2ccccc2C(=O)N1c1nc2ccc(C(F)(F)F)cc2s1 [Compound 59, 2-(6-Trifluoromethyl-benzothiazol-2-yl)-1H-isoindole-1,3(2H)-dione] | 10 | 21/32 | + |  |  | 100 | 6/11 | NS |  |  | + |  |  | NS | NS | NS | NS | + | NS | 
7 | O=C1c2cccc(O)c2C(=O)N1c1nc2ccc(C(F)(F)F)cc2s1 [Compound 61] | 100 | 3/15 | + |  |  | 1 | 9/20 | − |  |  | + |  |  | NS | NS | NS | NS | NS | + | 
8 | O=C1c2ccccc2CN1c1nc2ccc(C(F)(F)F)cc2s1 [Compound 62] | 10 | 18/20 | + |  |  | 10 | 6/20 | NS |  |  | NS |  |  | NS | NS | NS | NS | NS | NS | 
